In US20050080247A1, “Leinamycin biosynthesis gene cluster and its components and their uses” (priority 2001, published 2005):
Read-outs that look alike come from different tables or passages of the source.

Tests used:
[1] = tested on: S. atroolivaceus; assay: Antibiotic sensitivity (growth inhibition) of S. atroolivaceus; assay type: cell-based, Streptomyces atroolivaceus; settings: for complete inhibition of growth: concentration giving complete inhibition of growth of S. atroolivaceus; for sensitivity of S. atroolivaceus: result in words
Protocol: S. atroolivaceus grows very well at 30° C.; it doesn't grow at temperature beyond 35° C. […] Thus, E. coli-Streptornyces shuttle vectors pOJ260 (suicide vector, Am^R) and pKC1139 (self-replicating vector, Am^R) were chosen to make the gene-disruption constructs pYC12 and pYC20, respectively. The concentration of antibiotic (Am) for selection of transformants/exconjugates is 50 μg/ml.

[2] = cited from earlier work; for t1/2: aqueous condition
[3] = tested on: murine tumor models (HeLa S3, sarcoma180, B-16, Colon 26, leukemia P388); settings: cited from earlier work
[4] = tested on: Gram-positive and Gram-negative bacteria; settings: cited from earlier work
[5] = tested on: fungi; settings: cited from earlier work
[6] = tested on: DNA; settings: in the presence of thiol agents as cofactors; cited from earlier work

Structure (SMILES) | complete inhibition of growth [1] | sensitivity of S. atroolivaceus [1] | t1/2 ([2]; pH 6) | t1/2 ([2]; pH 7) | t1/2 ([2]; pH 8) | t1/2 in the presence of a thiol ([2]; in the presence of a thiol, compared with aqueous condition alone) | activity against drug-resistant tumors ([3]; murine models inoculated with tumors resistant to cisplatin, doxorubicin, mitomycin or cyclophosphamide) | antitumor activity ([3]; murine tumor models in vivo, including HeLa S3, sarcoma180, B-16, Colon 26, leukemia P388) | antimicrobial activity [4] | antimicrobial activity [5] | DNA cleavage [6]
CN[C@@H]1[C@@H](O[C@H]2O[C@H](CO)[C@@H](N)[C@H](O)[C@H]2O)OC2C[C@@H](N)[C@@H](O[C@H]3[C@H](O)[C@@H](O)[C@H](N)C[C@@H]3N)OC2[C@@H]1O (stereo partly shown) [apramycin] | 10 µg/mL | sensitive |  |  |  |  |  |  |  |  | 
C/C1=C\[C@@H](O)C(=O)/C=C/C=C\c2csc(n2)[C@@H](C)NC(=O)C[C@@]2(CC1)[S+]([O-])SC(=O)[C@]2(C)O (stereo partly shown) [Lnm, Leinamycin] |  |  | > 20 h | 8 h | < 1 h | even shorter t1/2 | active | potent antitumor activity | broad spectrum of antimicrobial activity | not against fungi | single-strand scission of DNA
C=C(NC(=O)C(=C)NC(=O)c1csc(C2=N[C@@H]3c4csc(n4)[C@H]4NC(=O)c5csc(n5)[C@H]([C@](C)(O)[C@@H](C)O)NC(=O)[C@H]5CSC(=N5)/C(=C/C)NC(=O)[C@H]([C@@H](C)O)NC(=O)c5csc(n5)[C@]3(CC2)NC(=O)[C@H](C)NC(=O)C(=C)NC(=O)[C@H](C)NC(=O)[C@H]([C@@H](C)CC)N[C@@H]2C=Cc3c([C@H](C)O)cc(nc3[C@H]2O)C(=O)O[C@@H]4C)n1)C(N)=O [thiostrepton] | 3 µg/mL | sensitive |  |  |  |  |  |  |  |  | 
